# Data reported in patent US20090156480A1, “Biodegradable nanoparticle having t-cell recognizable epitope peptide immobilized thereon or encapsulated therein” (priority 2005, published 2009).
# What was measured:
# Assay type in all cases: in vivo, BALB/c mice
# [1] = test system: draining lymph node cells; assay: Immunization potential: lymph node cell proliferation ([3H]thymidine intake) after subcutaneous footpad injection; settings: s.c. footpads, nanoparticles corresponding to 20 μg peptide, FIG. 1; for cell proliferation response (thymidine intake) to the injected T cell recognizable epitope peptide: day 11 lymph node cells stimulated with P1 or P2 20 μg/ml; for cell proliferation response (thymidine intake) to SBP: day 11 lymph node cells stimulated with SBP 10 μg/ml
# Description: (§1) Subcutaneously injected into the footpads of BALB/c mice (6-week-old male) was 100 μl (50 μl for each footpad) of a suspension of biodegradable nanoparticles having immobilized thereon Cryj1 or Cryj2 T cell recognizable epitope peptide (P1 or P2) (the amount of nanoparticles corresponding to 20 μg of the peptide) or nanoparticles having no peptide immobilized thereon. On day 11, a draining lymph node was removed to collect lymph node cells, which were then suspended in a mixture of RPM 11640 medium and 10% fetal calf serum (FCS). Such cells from two mice were combined together for use in each group. The cells were placed onto a 96-well incubation plate in an amount of 5×10^5 in each well. Further placed into each well as an antigen stimulus was P1 or P2 to a final concentration of 20 μg/ml or a cedar pollen roughly purified antigen (Sugi Basic Protein, SBP, Asahi Food and Health Care Co., Ltd.) in an amount of 10 μg/ml. Half of the mixture to be incubated was replaced by a fresh mixture to be incubated and containing [^3H] tritium-thymidine (0.5 μCi) 48 hours after the start of incubation. The cells were then collected onto a glass filter 16 hours thereafter by a cell harvester, and the [^3H] tritium intake (thymidine intake) was measured by a liquid scintillation counter for the evaluation of cell proliferation. The SBP mentioned above is an allergen containing both Cryj1 and Cryj2.
# [2] = test system: draining lymph node cells; assay: Ocular (conjunctival) administration, SBP sensitization: cell proliferation (thymidine intake) on SBP stimulation; settings: 5 μg peptide eight times, SBP sensitization day 16, SBP 10 μg/ml, versus ocularly untreated mice, FIG. 3
# Description: as §1, with “Further placed into each well as an antigen stimulus was P1 or P2 to a final concentration of 20 μg/ml or a cedar pollen roughly purified antigen (Sugi Basic Protein, SBP, Asahi Food and Health Care Co., Ltd.) in an amount of 10 μg/ml. Half of the mixture to be incubated was replaced by a fresh mixture to be incubated and containing [^3H] tritium-thymidine (0.5 μCi) 48 hours after the start of incubation.” left out, “The SBP mentioned above is an allergen containing both Cryj1 and Cryj2.” left out
# Mucosal administration of antigens is thought promising in immunotherapy, and the conjunctiva is considered to be one of the routes of administration (J. Immunol. 2000, 164: 4543-4550). […] The proliferation of cells was measured by the same method as described in Example 2. […]
# interleukin-5 = assay: Ocular (conjunctival) administration: interleukin-5 production by sandwich ELISA; settings: 5 μg peptide eight times, supernatant 64 hours, SBP 10 μg/ml, versus ocularly untreated mice, FIG. 3
# Description: (§2) Mucosal administration of antigens is thought promising in immunotherapy, and the conjunctiva is considered to be one of the routes of administration (J. Immunol. 2000, 164: 4543-4550). Biodegradable nanoparticles having immobilized thereon T cell recognizable epitope peptide were ocularly-instilled to investigate the influence on the response to the subsequent antigen sensitization. A saline solution of Cryj2 T cell recognizable epitope peptide (P2) (5 μg of the peptide) or a suspension of P2 immobilized nanoparticles (corresponding to 5 μg of the peptide) administered dropwise, in an amount of 10 μl, to the conjunctivas of the eyes of BALB/c mice (7-week-old male) eight times (on days 1-4 and days 6-9). On day 16, a suspension of 5 μg of cedar pollen roughly purified antigen SBP in Freund's incomplete adjuvant was injected for antigen sensitization into the right footpads to give rise to an immune response. […] The proliferation of cells was measured by the same method as described in Example 2. For the measurement of cytokine production, the supernatant was collected 64 hours after the start of incubation to quantitatively determine interleukin-5 and interferon-γ by sandwich ELISA using Bio-Plex cytokine assay system (product of Bio-Rad).
# interferon-γ = assay: Ocular (conjunctival) administration: interferon-γ production by sandwich ELISA; settings: 5 μg peptide eight times, supernatant 64 hours, SBP 10 μg/ml, versus ocularly untreated mice, FIG. 3
# Description: as §2
Sequence,cell proliferation response (thymidine intake) to the injected T cell recognizable epitope peptide [1],cell proliferation response (thymidine intake) to SBP [1],cell proliferation response (thymidine intake) to the stimulation with the antigen [2],production of interleukin-5 (Th2 cytokine) (interleukin-5),production of interferon-γ (Th1 cytokine) (interferon-γ)
"KQVTIRIGCKTSSS [P1, in b77 the label stands for the P1-immobilized nanoparticles injected]",specific cell proliferation response was observed,observed was a response to the SBP,–,–,–
RAEVSYVHVNGAKF [P2 alone],specific cell proliferation response was observed,observed was a response to the SBP,lower,reduced to nearly the same extent,lower
